Results from patent US9920020B2, “Using squaraine dyes as near infrared fluorescent sensors for protein detection” (The University of Akron, priority 2011, dated 2018).

Tests used:
lipase = experiment: Fluorescence response to lipase in PBS; format: binding
Experimental: (§1) The fluorescence enhancement upon binding BSA reached over 140-fold, which was quite large in comparison with those being reported. The detection limit was 1 μg/mL of BSA (signal-to-noise ratio was 3). The fluorescence response of DNSA-SQ to other proteins in PBS was also investigated. […] The observed specific binding to site I can be attributed to hydrophobic pockets of BSA in its structure.

BSA [1] = biological target: T1, BSA (Bos taurus, UniProt P02769); experiment: Absorption titration with BSA, 1:1 binding model (dissociation constant); set-up: species or system bovine; conditions: absorption titration in aqueous solution
T1 construct: purchased Acros Chemical
Text: (§2) With the 1:1 binding model from fitting of absorption titration spectra, the dissociation constant for BSA was estimated to be 9.35×10^−6 M upon titration with BSA in aqueous solution. In sharp contrast, there is no response to BSA in aqueous solution for 1b, as its binding to BSA requires addition of surfactant SDS or graphene.

fibrinogen = biological target: T2, fibrinogen (Homo sapiens, UniProt P02671+P02675+P02679); experiment: Fluorescence response to fibrinogen in PBS; format: binding
T2 sequence (P02671 20-629 limits assumed): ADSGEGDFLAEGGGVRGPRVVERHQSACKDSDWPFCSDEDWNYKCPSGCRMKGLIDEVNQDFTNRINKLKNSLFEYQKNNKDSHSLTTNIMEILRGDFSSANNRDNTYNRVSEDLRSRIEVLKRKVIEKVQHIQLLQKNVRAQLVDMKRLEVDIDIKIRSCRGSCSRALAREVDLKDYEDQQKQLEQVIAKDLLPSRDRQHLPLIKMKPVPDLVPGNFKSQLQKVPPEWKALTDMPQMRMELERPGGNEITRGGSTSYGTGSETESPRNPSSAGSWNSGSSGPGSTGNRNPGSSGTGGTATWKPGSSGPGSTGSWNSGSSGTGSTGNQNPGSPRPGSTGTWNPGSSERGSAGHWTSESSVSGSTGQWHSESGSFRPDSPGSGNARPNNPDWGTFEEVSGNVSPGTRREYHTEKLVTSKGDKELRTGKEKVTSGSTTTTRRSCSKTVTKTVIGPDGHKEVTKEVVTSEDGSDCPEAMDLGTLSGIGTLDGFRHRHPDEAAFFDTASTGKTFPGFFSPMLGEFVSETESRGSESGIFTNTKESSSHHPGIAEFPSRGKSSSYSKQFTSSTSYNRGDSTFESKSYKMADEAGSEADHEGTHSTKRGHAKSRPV
T2 sequence (P02675 31-491): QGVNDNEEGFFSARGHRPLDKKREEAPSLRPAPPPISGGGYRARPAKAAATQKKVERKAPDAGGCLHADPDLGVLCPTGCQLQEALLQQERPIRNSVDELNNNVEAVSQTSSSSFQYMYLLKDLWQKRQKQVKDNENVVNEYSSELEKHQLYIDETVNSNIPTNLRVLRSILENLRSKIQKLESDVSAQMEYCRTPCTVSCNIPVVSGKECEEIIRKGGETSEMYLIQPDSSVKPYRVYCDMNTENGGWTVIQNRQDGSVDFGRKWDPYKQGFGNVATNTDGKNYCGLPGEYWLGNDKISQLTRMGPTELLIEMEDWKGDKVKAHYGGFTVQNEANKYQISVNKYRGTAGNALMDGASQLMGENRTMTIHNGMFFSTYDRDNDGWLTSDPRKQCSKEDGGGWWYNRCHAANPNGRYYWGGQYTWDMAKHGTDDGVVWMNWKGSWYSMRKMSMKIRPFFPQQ
T2 sequence (P02679 27-433 limits assumed): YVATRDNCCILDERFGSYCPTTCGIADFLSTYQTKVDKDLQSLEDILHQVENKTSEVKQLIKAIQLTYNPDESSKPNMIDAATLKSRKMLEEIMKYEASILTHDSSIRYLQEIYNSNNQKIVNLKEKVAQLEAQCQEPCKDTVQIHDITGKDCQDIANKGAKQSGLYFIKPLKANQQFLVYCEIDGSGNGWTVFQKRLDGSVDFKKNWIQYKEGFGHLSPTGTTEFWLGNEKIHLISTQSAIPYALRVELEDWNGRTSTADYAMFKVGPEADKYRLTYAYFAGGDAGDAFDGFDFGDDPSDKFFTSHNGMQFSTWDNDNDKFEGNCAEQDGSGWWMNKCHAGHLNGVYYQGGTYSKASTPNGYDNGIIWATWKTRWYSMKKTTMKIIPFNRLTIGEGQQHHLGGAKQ
Experimental: as §1

BSA site I and site II = biological target: T3, BSA site I and site II (Bos taurus, UniProt P02769); experiment: Site-selective ligand displacement from BSA/DNSA-SQ complex; format: binding, bovine
T3 construct: purchased Acros Chemical
Text: The site-selective binding of BSA/DNSA-SQ was probed by employing a site selective binding ligand, which would result in decrease in fluorescence intensity when the squaraine dyes were displaced from a specific BSA binding site. […] The observed fluorescence increasing thus implies that the BSA conformation change as DP entered the site II, which stimulated interaction of BSA/DNSA-SQ at site I. It was noted that a squaraine dye can selectively bind BSA at site I (˜40%) and site II (˜60%) on the assumption of no dependency between Site I and II of BSA. Circular dichroism (CD) was also used to probe the proposed binding mechanism. Similar CD spectra usually represent a similar binding mode between the sensor and protein. […] Under the same conditions, the effect of DNSA-SQ on the CD spectrum of BSA was similar to that of DNSA. The result further supports that DNSA-SQ was binding to site I of BSA.
The response of a fluorescence probe at a specific site (such as site I), therefore, could also shed some light on the binding of the other site (e.g. site II). Study of this synergetic interaction between two binding sites could lead to improved understanding on the protein-dye interaction.

BSA [2] = biological target: T1, BSA; experiment: Fluorescence response of DNSA-SQ to BSA in aqueous solution without aggregation agent; format: binding, bovine
Experimental: as §2, §1

[3] = test system: BSA injected into zebrafish embryos; experiment: DNSA-SQ labeling of live developing zebrafish embryos; format: in vivo
Text: (§3) The most attractive application for protein sensing is labeling and imaging in living organisms. Zebrafish have recently become an important model organism for the study of vertebrate imaging. This is because the embryos of zebrafish are transparent, allowing for clear observation of their organs without the need for dissection. The optical transparancy of zebrafish, therefore, provides a convenient organism for detection of ions by fluorescence microscopy. No published reports are found on the use of zebrafish for BSA fluorescence microscopy. Herein, DNSA-SQ was examined in developing zebrafish for its applicability. DNSA-SQ labeling was examined in developing zebrafish by adding DNSA-SQ to fish tank water (treatment lasted for one hour at room temperature). There was no labeling in control (i.e. without BSA supplement) embryos at 2.5 hours post fertilization (hpf, FIG. 20B), 36 hpf and 73 hpf (data not shown). […] At 73 hpf, the labeling was detected in the yolk and yolk extension (FIG. 20D), eye (FIG. 20E) and pigmented cells in the body trunk and tail regions (FIGS. 20G and H). […] The DNSA-SQ labeling pattern show good biocompatibility, excellent turn-on fluorescence.

chymotrypsin = experiment: Fluorescence response to chymotrypsin in PBS; format: binding
Experimental: as §1

trypsin = experiment: Fluorescence response to trypsin in PBS; format: binding
Experimental: as §1

zebrafish embryos/larvae = experiment: Toxicity to zebrafish embryos/larvae; format: in vivo
Text: as §3
Therefore DNSA-SQ was proving not toxic to the subjects. […]

BSA [4] = biological target: T1, BSA; experiment: ESI travelling wave ion mobility mass spectrometry (TWIMS) of BSA-guest complexes; set-up: species or system bovine; conditions: 15+ charge state
Text: Ion mobility mass spectrometry, when coupled with ESI, can produce an array of multiply charged gas-phase ions from protein molecules in solution which is related to the solution-phase folded and unfolded conformation of the protein. The structural measurement, namely, collision cross-section, can be calculated from the drift time of each ion. Herein we use travelling wave ion mobility mass spectrometry (TWIMS) to detect the change of the protein conformation after different site selective binding guests were added in BSA buffer solution. TWIMS was performed under the same conditions to ensure minimal error for compassion. […] As shown in FIG. 19(c), the ions of DP were generated through the tandem MS of intact complex ions at 15+. Taking 15+ charge state for example, the mobility peak drift time tD=6.41, 6.80, 6.67 and 6.54 ms for BSA, BSA+DP, BSA+DNSA-SQ and BSA+DNSA, respectively. The corresponding experimental collision cross-sections (CCS) are 4298, 4364, 4342 and 4320 Å2 using standard curve. […] This finding is consistent with the fluorescence change discussed above, particularly for the fluorescence enhancement by adding DP to BSA/DNSA-SQ.

[5] = Fluorescence quantum yield of the dye in aqueous solution; format: physicochemical; conditions: no protein
Experimental: NMR spectra were collected on a Varian 300 Gemini spectrometer. Mass spectrometric data were obtained on a HP1100LC/MSD mass spectrometry. HRMS data were performed on a TOF MS system. UV-Vis spectra were acquired on a Hewlett-Packard 8453 diode-array spectrometer. Fluorescence spectra were obtained on a HORIBA Jobin Yvon NanoLog spectrometer. The quantum yield of fluorescence of the sample was measured using bis(3-ethylbenzothiazol-2-ylidene)squaraine in ethanol (Φ=0.21) as a standard and calculated using equation (1): […]
Where Φunk is i the fluorescence quantum yield of the sample, Φstd is the fluorescence quantum yield of the standard, Iunk and Istd are the integrated emission intensities of the sample and the standard, respectively, Aunk and Astd are the absorbance of the sample and the standard at the excitation wavelength, respectively, and nunk and nstd are the refractive indexes of the corresponding solution.
In the presence of the anionic surfactant (sodium dodecyl sulfate, SDS) (1.7 mM or 0.05% wt), the fluorescence signals are further decreased by a factor of about 3. […] The emission signals at ˜684 nm is assigned to the monomeric 1b, as the fluorescence of squaraine dye typically has a small Stokes' shift (about 10-30 nm). […] Similar fluorescence enhancement is also observed from 1a and 1c after the addition of BSA. […]

[6] = biological target: T4, formaldehyde dehydrogenase (Pseudomonas putida, UniProt P46154); experiment: Fluorescence response to formaldehyde dehydrogenase in PBS; format: binding
T4 construct: purchased SIGMA
Experimental: as §1

lysozyme = biological target: T5, lysozyme (Gallus gallus, UniProt P00698); experiment: Fluorescence response to lysozyme in PBS; format: binding
T5 construct: purchased SIGMA
Experimental: as §1

[7] = dye in fish tank water, one hour, room temperature

T1 sequence (P02769 25-607): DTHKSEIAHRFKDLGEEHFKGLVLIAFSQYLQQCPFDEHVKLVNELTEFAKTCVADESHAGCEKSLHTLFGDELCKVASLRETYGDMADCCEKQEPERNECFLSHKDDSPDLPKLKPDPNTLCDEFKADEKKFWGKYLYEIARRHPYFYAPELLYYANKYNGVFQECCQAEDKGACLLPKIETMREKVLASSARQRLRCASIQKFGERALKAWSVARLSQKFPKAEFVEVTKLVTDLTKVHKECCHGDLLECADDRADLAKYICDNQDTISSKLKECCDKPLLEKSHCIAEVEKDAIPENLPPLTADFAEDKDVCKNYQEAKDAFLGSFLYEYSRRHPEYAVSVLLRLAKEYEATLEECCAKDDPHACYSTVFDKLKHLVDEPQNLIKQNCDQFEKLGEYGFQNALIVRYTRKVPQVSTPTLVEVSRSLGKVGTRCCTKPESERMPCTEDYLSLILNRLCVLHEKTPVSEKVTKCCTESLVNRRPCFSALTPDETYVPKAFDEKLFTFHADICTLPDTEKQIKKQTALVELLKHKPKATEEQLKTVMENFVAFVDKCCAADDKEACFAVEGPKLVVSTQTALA
T3 sequence (P02769 25-607): as above
T5 sequence (P00698 19-147): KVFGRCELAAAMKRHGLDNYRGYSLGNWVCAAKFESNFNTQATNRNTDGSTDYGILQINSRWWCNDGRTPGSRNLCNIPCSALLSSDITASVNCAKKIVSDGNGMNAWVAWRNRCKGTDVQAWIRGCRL
T4 sequence (P46154 whole entry): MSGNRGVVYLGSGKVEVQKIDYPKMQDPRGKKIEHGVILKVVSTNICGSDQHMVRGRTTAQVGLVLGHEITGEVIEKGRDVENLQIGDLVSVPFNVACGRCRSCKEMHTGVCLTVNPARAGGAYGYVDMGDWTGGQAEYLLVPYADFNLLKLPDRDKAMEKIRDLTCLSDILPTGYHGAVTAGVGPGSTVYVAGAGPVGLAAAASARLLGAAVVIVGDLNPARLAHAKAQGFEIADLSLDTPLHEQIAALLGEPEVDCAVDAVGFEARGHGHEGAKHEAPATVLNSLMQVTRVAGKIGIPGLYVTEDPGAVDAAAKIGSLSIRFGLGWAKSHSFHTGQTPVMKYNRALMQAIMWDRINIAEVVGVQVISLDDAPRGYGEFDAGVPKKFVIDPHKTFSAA

## CCN1C(=CC2=C([N-]S(=O)(=O)c3cccc4c(N(C)C)cccc34)C(=Cc3sc4ccccc4[n+]3CC)C2=O)Sc2ccccc21 [DNSA-SQ]
lipase
  fluorescence change with lipase: no obvious fluorescence change
BSA [1]
  Kd: 9.35 µM
fibrinogen
  fluorescence change with fibrinogen: no obvious fluorescence change
BSA site I and site II; displacement by DNSA
  fluorescence of BSA/DNSA-SQ complex on addition of site I ligand DNSA: did not result in fluorescence intensity change
BSA site I and site II; displacement by DP
  fluorescence of BSA/DNSA-SQ complex on addition of site II ligand DP: fluorescence intensity increasing
BSA site I and site II; displacement by site-selective ligands and mass spectra data
  BSA binding site selectivity: enters selectively at site I
BSA [2]; 674 nm, no aggregation agent
  fluorescence enhancement upon binding BSA: over 140 fold
BSA [2]; signal-to-noise ratio 3
  detection limit of BSA: 1 µg/mL
[3]; 2.5, 36 and 73 hpf
  labeling of control embryos without BSA supplement: no labeling
[3]; [7]
  labeling of BSA-injected embryos at 2.5 hpf: labeling of all dividing cells
  labeling of BSA-injected embryos at 73 hpf: confined BSA labeling
[3]; living zebrafish embryos
  cell membrane penetration: can easily penetrate through cell membranes
chymotrypsin
  fluorescence change with chymotrypsin: no obvious fluorescence change
trypsin
  fluorescence change with trypsin: no obvious fluorescence change
Zebrafish embryos/larvae
  size and shape of treated embryos/larvae compared to untreated: appeared normal in size and shape
  toxicity to treated embryos/larvae: not toxic
BSA [4]
  mobility peak drift time tD of BSA-guest complex: 6.67 ms
BSA [4]; standard curve
  experimental collision cross-section (CCS) of BSA-guest complex: 4342 Å2
[5]
  fluorescence quantum yield φfl: 1.0×10^−4
[6]
  fluorescence change with formaldehyde dehydrogenase: no obvious fluorescence change
lysozyme
  fluorescence change with lysozyme: no obvious fluorescence change
